Data taken from patent publication US20090298857A1, “Treatment of Neurodegenerative Diseases Through Inhibition of HSP90” (SLOAN-KETTERING INSTITUTE FOR CANCER RESEARCH, priority 2006, published 2009).

Tested on: human TauP301L in JNPL3 mouse brain
Test: One dose PU-DZ8 in JNPL3 mice, soluble (S1) and insoluble (P3) Tau
Format: in vivo
Details: 75 mg/kg i.p.
Method: To investigate whether the human TauP301L present in the JNPL3 line of mice is a sensitive target for Hsp90 inhibition, animals were treated with the brain-barrier permeable Hsp90 inhibitor PU-DZ8. This agent is a higher-potency water soluble derivative of PU24FC1 (EC50JNPL3 brain Hsp90=70 nM). One dose of PU-DZ8 (75 mg/kg) was administered intraperitoneally (i.p.) to female mice of 2.5-4 months in age (n=32) and animals were sacrificed in the interval of 0 to 36 h. Both aggregate-free Tau (S1) and insoluble Tau (P3) fractions were prepared from the subcortical and cortical regions of these mice. Human Tau levels were assessed by immunobloting with a human specific anti-Tau antibody (HT-7). […] We next examined in a 4- to 6-month old mouse group (n=15) whether the stability of mTau as present in tau aggregates (P3 fraction) was additionally regulated by Hsp90.
For experiments designed to test the kinetics of mTau and p35 modulation by Hsp90 inhibitors, animals were administered intraperitoneally (i.p.) 75 mg/kg PU-DZ8 in PBS (6% DMSO). Mice were sacrificed by CO2 euthanasia at the indicated times following PU-DZ8 administration. Hemibrains were separated into cortico-limbic (cortex, amygdale and hippocampus) and subcortical (basal ganglia, diencephalon, brain stem and cerebellum) regions, quickly frozen on dry ice and stored at −80° C. and processed. In summary, each brain piece was weighed and homogenized in three volumes of Tris-buffered saline (TBS) containing protease and phosphatase inhibitors (25 mM Tris-HCl, pH 7.4, 150 mM NaCl, 1 mM EDTA, 1 mM EGTA, 5 mM sodium pyrophosphate, 30 mM p-glycerophosphate, 30 mM sodium fluoride. 1 mM phenylmethylsulfonyl fluoride (PMSF)). The homogenates were centrifuged at 27,000 g for 15 min at 4° C. Supernatants were collected as S1 fractions, and the pellets (P1) were re-homogenized in three volumes of salt/sucrose buffer (0.8 M NaCl, 10% sucrose, 10 mM Tris/HCl, pH 7.4, 1 mM EGTA, 1 mM PMSF) and centrifuged as above. The resulting pellets were discarded and the supernatants were incubated with sarkosyl (Sigma, St Louis, Mo., USA; 1% final concentration) for 1 h at 37° C. The sarkosyl mixtures were then centrifuged at 150,000 g for 30 min at 4° C. The supernatants (S2 fraction) were collected, and the pellets (P3) were resuspended in 50 μL 2% SDS in TBS and stored at −80° C. for western blotting. Proteins were analyzed by Western blot.

## CC(C)NCCCn1c(Cc2cc3c(cc2I)OCO3)nc2c(N)nc(F)nc21 [PU-DZ8]
  cdk5 expression: No significant changes
  expressions of Akt and Raf-1: not altered
4- to 6-month old mice
  insoluble and hyperphosphorylated Tau (P3 fraction): significant reduction
4 h (P=0.0031), maintained up to 36 h
  soluble precursor pool mTau (S1), subcortical brain regions: significant decrease
